Measured values taken from BindingDB's records for doi:10.1021/jm5001979 (Amgen, 2014).

Test: Induction of GK translocation from nucleus to cytoplasm of mouse hepatocytes preincubated for 20 mins followed by glucose challenge measured after 40 mins by Hoechst 33342 staining-based assay

EC50 [µM]	Compound
11.2	Nc1ccc(S(=O)(=O)N2CCN(c3ncc(C(O)(C(F)(F)F)C(F)(F)F)cc3-c3cc[nH]n3)CC2)cn1
5.37	Nc1ccc(S(=O)(=O)N2CCN(c3ncc(C(O)(C(F)(F)F)C(F)(F)F)cc3Br)CC2)cn1
3.35	Nc1ccc(S(=O)(=O)N2CCN(c3ncc(C(O)(C(F)(F)F)C(F)(F)F)cc3C#CC3CC3)CC2)cn1
0.51	Nc1ccc(S(=O)(=O)N2CCN(c3ncc(C(O)(C(F)(F)F)C(F)(F)F)cc3C#CCO)CC2)cn1
0.254	COCC#Cc1cc(C(O)(C(F)(F)F)C(F)(F)F)cnc1N1CCN(S(=O)(=O)c2ccc(N)nc2)CC1
2.14	CC(C)(O)C#Cc1cc(C(O)(C(F)(F)F)C(F)(F)F)cnc1N1CCN(S(=O)(=O)c2ccc(N)nc2)CC1
2	Nc1ccc(S(=O)(=O)N2CCN(c3ncc(C(O)(C(F)(F)F)C(F)(F)F)cc3C#CCCO)CC2)cn1
2.63	Nc1ccc(S(=O)(=O)N2CCN(c3ncc(C(O)(C(F)(F)F)C(F)(F)F)cc3-c3ccc4[nH]ncc4c3)CC2)cn1
1.12	Nc1ccc(S(=O)(=O)N2CCN(c3ncc(C(O)(C(F)(F)F)C(F)(F)F)cc3-c3cc4ccccc4[nH]3)CC2)cn1
2.75	Nc1ccc(S(=O)(=O)N2CCN(c3ncc(C(O)(C(F)(F)F)C(F)(F)F)cc3-c3cc4ccccc4s3)CC2)cn1
> 12.5	Nc1ccc(S(=O)(=O)N2CCN(c3ccc(C(O)(C(F)(F)F)C(F)(F)F)cn3)CC2)cn1
6.36	Nc1ccc(S(=O)(=O)N2CCN(c3ncc(C(O)(C(F)(F)F)C(F)(F)F)cc3Cl)CC2)cn1
0.234	CN1C(=O)Cc2cc(-c3cc(C(O)(C(F)(F)F)C(F)(F)F)cnc3N3CCN(S(=O)(=O)c4ccc(N)nc4)CC3)ccc21
0.309	Nc1ccc(S(=O)(=O)N2CCN(c3ncc(C(O)(C(F)(F)F)C(F)(F)F)cc3-c3ccc4c(c3)CC(=O)N4)CC2)cn1
0.351	Cc1nc2cc(-c3cc(C(O)(C(F)(F)F)C(F)(F)F)cnc3N3CCN(S(=O)(=O)c4ccc(N)nc4)CC3)ccc2o1
0.416	Nc1ccc(S(=O)(=O)N2CCN(c3ncc(C(O)(C(F)(F)F)C(F)(F)F)cc3-c3ccc4ocnc4c3)CC2)cn1
1.15	Nc1ccc(S(=O)(=O)N2CCN(c3ncc(C(O)(C(F)(F)F)C(F)(F)F)cc3-c3ccc4scnc4c3)CC2)cn1
> 12.5	Nc1ccc(S(=O)(=O)N2CCN(c3ncc(C(O)(C(F)(F)F)C(F)(F)F)cc3-c3ccc4sccc4c3)CC2)cn1
1.4	COc1cncc(-c2cc(C(O)(C(F)(F)F)C(F)(F)F)cnc2N2CCN(S(=O)(=O)c3ccc(N)nc3)CC2)c1
1.4	COc1ccc(-c2cc(C(O)(C(F)(F)F)C(F)(F)F)cnc2N2CCN(S(=O)(=O)c3ccc(N)nc3)CC2)cn1

EC50 [µM]	Compound
4.68	Cc1ccc(-c2cc(C(O)(C(F)(F)F)C(F)(F)F)cnc2N2CCN(S(=O)(=O)c3ccc(N)nc3)CC2)cn1
0.794	Cc1cncc(-c2cc(C(O)(C(F)(F)F)C(F)(F)F)cnc2N2CCN(S(=O)(=O)c3ccc(N)nc3)CC2)c1
> 12.5	Nc1ccc(S(=O)(=O)N2CCN(c3ncc(C(O)(C(F)(F)F)C(F)(F)F)cc3-c3cncc(F)c3)CC2)cn1
1.29	Nc1ccc(S(=O)(=O)N2CCN(c3ncc(C(O)(C(F)(F)F)C(F)(F)F)cc3-c3cnccc3F)CC2)cn1
0.933	Nc1ccc(S(=O)(=O)N2CCN(c3ncc(C(O)(C(F)(F)F)C(F)(F)F)cc3-c3ccncc3)CC2)cn1
2.95	CS(=O)(=O)c1ccc(-c2cc(C(O)(C(F)(F)F)C(F)(F)F)cnc2N2CCN(S(=O)(=O)c3ccc(N)nc3)CC2)cc1
0.766	NC(=O)c1cccc(-c2cc(C(O)(C(F)(F)F)C(F)(F)F)cnc2N2CCN(S(=O)(=O)c3ccc(N)nc3)CC2)c1
0.565	Nc1ccc(S(=O)(=O)N2CCN(c3ncc(C(O)(C(F)(F)F)C(F)(F)F)cc3-c3ccccc3O)CC2)cn1
1.38	Nc1ccc(S(=O)(=O)N2CCN(c3ncc(C(O)(C(F)(F)F)C(F)(F)F)cc3-c3ccc(F)cc3)CC2)cn1
2.8	Nc1ccc(S(=O)(=O)N2CCN(c3ncc(C(O)(C(F)(F)F)C(F)(F)F)cc3-c3cccc(F)c3)CC2)cn1
0.803	Nc1ccc(S(=O)(=O)N2CCN(c3ncc(C(O)(C(F)(F)F)C(F)(F)F)cc3-c3ccccc3F)CC2)cn1
0.776	Nc1ccc(S(=O)(=O)N2CCN(c3ncc(C(O)(C(F)(F)F)C(F)(F)F)cc3-c3ccccc3)CC2)cn1
1.19	Cc1csc(-c2cc(C(O)(C(F)(F)F)C(F)(F)F)cnc2N2CCN(S(=O)(=O)c3ccc(N)nc3)CC2)c1
1.73	Nc1ccc(S(=O)(=O)N2CCN(c3ncc(C(O)(C(F)(F)F)C(F)(F)F)cc3-c3ccoc3)CC2)cn1
1.26	Cc1c(-c2cc(C(O)(C(F)(F)F)C(F)(F)F)cnc2N2CCN(S(=O)(=O)c3ccc(N)nc3)CC2)cnn1C
2.45	CC(C)(C)n1cc(-c2cc(C(O)(C(F)(F)F)C(F)(F)F)cnc2N2CCN(S(=O)(=O)c3ccc(N)nc3)CC2)cn1
1.08	CC(C)n1cc(-c2cc(C(O)(C(F)(F)F)C(F)(F)F)cnc2N2CCN(S(=O)(=O)c3ccc(N)nc3)CC2)cn1
0.081	CCn1cc(-c2cc(C(O)(C(F)(F)F)C(F)(F)F)cnc2N2CCN(S(=O)(=O)c3ccc(N)nc3)CC2)cn1
0.052	Cn1cc(-c2cc(C(O)(C(F)(F)F)C(F)(F)F)cnc2N2CCN(S(=O)(=O)c3ccc(N)nc3)CC2)cn1
